Measured values taken from patent US20230257372A1 (CHONG KUN DANG PHARMACEUTICAL CORP., priority 2020, published 2023).
Where two headings read alike, the source gives them in different places.

Key:
[1] = molecular target: T1, human recombinant HDAC1 (Homo sapiens, UniProt Q13547); assay: HDAC1 enzyme activity inhibition (HDAC Fluorimetric Drug Discovery Kit); type: biochemical; details: read-out: HDAC1
T1 construct: purchased Enzo Life Science, Inc. BML-SE456
Summary of the method: (§1)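 Fluorescence from a Fluor de Lys developer step (30 minutes) reports residual deacetylation after a 60-minute, 30° C reaction of […] enzyme with 10 μM substrate and 5-fold compound dilutions.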

[2] = molecular target: T2, human recombinant HDAC6 (Homo sapiens, UniProt Q9UBN7); assay: HDAC6 enzyme activity inhibition (HDAC Fluorimetric Drug Discovery Kit); type: biochemical
T2 construct: purchased Calbiochem Inc. 382180
T2 sequence (Q9UBN7 1-1215): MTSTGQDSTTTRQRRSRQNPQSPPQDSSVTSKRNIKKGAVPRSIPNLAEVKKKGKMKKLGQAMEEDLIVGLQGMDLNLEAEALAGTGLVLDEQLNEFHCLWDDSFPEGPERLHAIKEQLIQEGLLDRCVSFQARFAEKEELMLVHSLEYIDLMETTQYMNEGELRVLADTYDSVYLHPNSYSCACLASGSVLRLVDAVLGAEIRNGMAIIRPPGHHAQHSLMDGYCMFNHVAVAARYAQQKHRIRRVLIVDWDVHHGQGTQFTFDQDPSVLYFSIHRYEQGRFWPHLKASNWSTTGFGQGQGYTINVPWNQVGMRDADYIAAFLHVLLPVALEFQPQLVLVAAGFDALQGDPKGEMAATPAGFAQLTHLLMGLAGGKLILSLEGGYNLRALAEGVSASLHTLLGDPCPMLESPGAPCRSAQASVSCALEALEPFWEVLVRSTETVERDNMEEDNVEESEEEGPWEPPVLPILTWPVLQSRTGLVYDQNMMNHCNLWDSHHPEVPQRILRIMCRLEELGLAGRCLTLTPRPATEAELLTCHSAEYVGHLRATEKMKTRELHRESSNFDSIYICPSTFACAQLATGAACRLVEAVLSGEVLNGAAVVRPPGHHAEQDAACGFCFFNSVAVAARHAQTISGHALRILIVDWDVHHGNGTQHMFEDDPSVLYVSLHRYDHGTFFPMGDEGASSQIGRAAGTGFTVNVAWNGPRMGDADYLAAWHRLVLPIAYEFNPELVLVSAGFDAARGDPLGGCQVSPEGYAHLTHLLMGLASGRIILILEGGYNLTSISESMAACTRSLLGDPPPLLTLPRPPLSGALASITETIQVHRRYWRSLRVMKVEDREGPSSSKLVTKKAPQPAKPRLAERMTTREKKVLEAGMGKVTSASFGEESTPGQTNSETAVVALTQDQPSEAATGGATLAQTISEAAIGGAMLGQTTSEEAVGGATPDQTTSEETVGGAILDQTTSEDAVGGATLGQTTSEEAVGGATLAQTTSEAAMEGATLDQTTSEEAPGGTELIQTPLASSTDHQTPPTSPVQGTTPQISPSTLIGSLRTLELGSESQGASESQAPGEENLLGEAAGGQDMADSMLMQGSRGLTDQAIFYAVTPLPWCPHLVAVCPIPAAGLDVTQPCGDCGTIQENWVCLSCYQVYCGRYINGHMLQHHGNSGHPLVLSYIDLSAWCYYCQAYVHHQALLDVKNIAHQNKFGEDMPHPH
Summary of the method: as §1

[3] = human recombinant HDAC1, IC50 calculated with GraphPad Prism
[4] = human recombinant HDAC6, IC50 calculated with GraphPad Prism
[5] = human recombinant HDAC1, Fluor de Lys substrate, 30° C. 60 minutes
[6] = human recombinant HDAC6, same protocol as HDAC1

T1 sequence (Q13547 whole entry): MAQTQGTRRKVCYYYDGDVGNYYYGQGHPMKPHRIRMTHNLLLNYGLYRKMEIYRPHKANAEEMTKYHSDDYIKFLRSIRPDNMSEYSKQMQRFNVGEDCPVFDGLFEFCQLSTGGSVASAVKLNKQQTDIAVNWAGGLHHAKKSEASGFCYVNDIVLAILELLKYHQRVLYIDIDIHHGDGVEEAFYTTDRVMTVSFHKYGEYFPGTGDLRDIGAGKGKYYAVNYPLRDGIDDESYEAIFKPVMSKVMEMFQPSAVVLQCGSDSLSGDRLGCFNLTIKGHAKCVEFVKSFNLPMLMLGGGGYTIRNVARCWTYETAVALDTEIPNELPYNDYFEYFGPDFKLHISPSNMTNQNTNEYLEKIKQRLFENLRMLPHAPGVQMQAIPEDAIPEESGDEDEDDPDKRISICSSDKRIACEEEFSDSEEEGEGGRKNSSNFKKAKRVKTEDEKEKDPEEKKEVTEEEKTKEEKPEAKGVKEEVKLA

Row | IC50 [1, 3] [nM] | HDAC6 selectivity (fold) ([2]; HDAC1 IC50 / HDAC6 IC50) | IC50 [2, 4] [nM] | IC50 [1, 5] [nM] | HDAC6 selectivity (fold) ([2]; HDAC6 over HDAC1) | IC50 [2, 6] [nM] | Structure (SMILES)
1 | > 50000 | 934 | 53.5 | – | – | – | CCCN1CCC(Nc2ccc(F)c(-c3cn(Cc4ccc(-c5nnc(C(F)F)o5)cc4F)nn3)c2)CC1 [Compound 4438, N-(3-(1-(4-(5-(difluoromethyl)-1,3,4-oxadiazol-2-yl)-2-fluorobenzyl)-1H-1,2,3-triazol-4-yl)-4-fluorophenyl)-1-propylpiperidin-4-amine]
2 | – | – | – | > 50000 | 976 | 51.2 | Fc1cc(-c2nnc(C(F)F)o2)ccc1Cn1cc(-c2cccc(N3CCN(C4CCC4)CC3)n2)nn1 [Compound 17364, 2-(4-((4-(6-(4-cyclobutylpiperazin-1-yl)pyridin-2-yl)-1H-1,2,3-triazol-1-yl)methyl)-3-fluorophenyl)-5-(difluoromethyl)-1,3,4-oxadiazole]
3 | – | – | – | > 50000 | 1893 | 26.4 | CCN(CC)Cc1ccc(-c2cn(Cc3ccc(-c4nnc(C(F)F)o4)cc3F)nn2)cc1 [Compound 4608, N-(4-(1-(4-(5-(difluoromethyl)-1,3,4-oxadiazol-2-yl)-2-fluorobenzyl)-1H-1,2,3-triazol-4-yl)benzyl)-N-ethylethanamine]
4 | > 50000 | 4464 | 11.2 | – | – | – | FC(F)c1nnc(-c2ccc(Cn3cc(-c4ccc5[nH]cc(CN6CCOCC6)c5c4)nn3)cc2)o1 [Compound 4186, 4-((5-(1-(4-(5-(difluoromethyl)-1,3,4-oxadiazol-2-yl)benzyl)-1H-1,2,3-triazol-4-yl)-1H-indol-3-yl)methyl)morpholine]
5 | – | – | – | > 50000 | 881 | 56.7 | Fc1cc(-c2nnc(C(F)F)o2)ccc1Cn1cc(-c2ccc(CN3CC[C@@H](F)C3)s2)nn1 [Compound 17917]
6 | – | – | – | > 50000 | 506 | 98.7 | Fc1cc(-c2nnc(C(F)F)o2)ccc1Cn1cc(-c2cccc3c2OC(F)(F)O3)nn1 [Compound 18470, 2-(4-((4-(2,2-difluorobenzo[d][1,3]dioxol-4-yl)-1H-1,2,3-triazol-1-yl)methyl)-3-fluorophenyl)-5-(difluoromethyl)-1,3,4-oxadiazole]
7 | > 50000 | 591 | 84.5 | – | – | – | Fc1cc(-c2nnc(C(F)F)o2)ccc1Cn1cc(-c2ccc3cc[nH]c3c2)nn1 [Compound 4077, 2-(4-((4-(1H-indol-6-yl)-1H-1,2,3-triazol-1-yl)methyl)-3-fluorophenyl)-5-(difluoromethyl)-1,3,4-oxadiazole]
8 | – | – | – | > 50000 | 6024 | 8.3 | Fc1cc(-c2nnc(C(F)F)o2)ccc1Cn1cc(-c2cnc3[nH]ccc3c2)nn1 [Compound 4524, 2-(4-((4-(1H-pyrrolo[2,3-b]pyridin-5-yl)-1H-1,2,3-triazol-1-yl)methyl)-3-fluorophenyl)-5-(difluoromethyl)-1,3,4-oxadiazole]
9 | > 50000 | 444 | 113 | – | – | – | FC(F)c1nnc(-c2ccc(Cn3cc(-c4ccccc4)cn3)nc2)o1 [Compound 4133, 2-(difluoromethyl)-5-(6-((4-phenyl-1H-pyrazol-1-yl)methyl)pyridin-3-yl)-1,3,4-oxadiazole]
10 | > 50000 | 1315 | 38 | – | – | – | C[C@@H]1CN(c2cccc(-c3cn(Cc4ccc(-c5nnc(C(F)F)o5)cc4)nn3)c2)C[C@H](C)N1C [Compound 4441, 2-(difluoromethyl)-5-(4-((4-(3-((3R,5S)-3,4,5-trimethylpiperazin-1-yl)phenyl)-1H-1,2,3-triazol-1-yl)methyl)phenyl)-1,3,4-oxadiazole]
11 | > 50000 | 2283 | 21.9 | – | – | – | Fc1cc(-c2nnc(C(F)F)o2)ccc1Cn1cc(-c2ccc(CN3CC(F)C3)cc2)nn1 [Compound 4467, 2-(difluoromethyl)-5-(3-fluoro-4-((4-(4-((3-fluoroazetidin-1-yl)methyl)phenyl)-1H-1,2,3-triazol-1-yl)methyl)phenyl)-1,3,4-oxadiazole]
12 | > 50000 | 166 | 301 | – | – | – | CCN1CCC(c2cn(Cc3ccc(-c4nnc(C(F)F)o4)cn3)nn2)CC1 [Compound 3807, 2-(difluoromethyl)-5-(6-((4-(1-ethylpiperidin-4-yl)-1H-1,2,3-triazol-1-yl)methyl)pyridin-3-yl)-1,3,4-oxadiazole]
13 | – | – | – | > 50000 | 371 | 135 | CN1CC(c2cccc(-c3cn(Cc4ccc(-c5nnc(C(F)F)o5)cc4)nn3)c2)C1 [Compound 4528, 2-(difluoromethyl)-5-(4-((4-(3-(1-methylazetidin-3-yl)phenyl)-1H-1,2,3-triazol-1-yl)methyl)phenyl)-1,3,4-oxadiazole]
14 | > 50000 | 909 | 55 | – | – | – | CN1CCC(c2cccc(-c3cn(Cc4ccc(-c5nnc(C(F)F)o5)cc4F)nn3)c2)CC1 [Compound 4290, 2-(difluoromethyl)-5-(3-fluoro-4-((4-(3-(1-methylpiperidin-4-yl)phenyl)-1H-1,2,3-triazol-1-yl)methyl)phenyl)-1,3,4-oxadiazole]
15 | > 50000 | 202 | 247 | – | – | – | CC(C)N1CCN(c2cc(-c3cn(Cc4ccc(-c5nnc(C(F)F)o5)cc4)nn3)ccc2F)CC1 [Compound 4421, 2-(difluoromethyl)-5-(4-((4-(4-fluoro-3-(4-isopropylpiperazin-1-yl)phenyl)-1H-1,2,3-triazol-1-yl)methyl)phenyl)-1,3,4-oxadiazole]
16 | > 50000 | 630 | 79.3 | – | – | – | FC(F)c1nnc(-c2ccc(Cn3cc(C4CCCC4)nn3)nc2)o1 [Compound 3846, 2-(6-((4-cyclopentyl-1H-1,2,3-triazol-1-yl)methyl)pyridin-3-yl)-5-(difluoromethyl)-1,3,4-oxadiazole]
17 | > 50000 | 794 | 62.9 | – | – | – | Fc1cc(-c2nnc(C(F)F)o2)ccc1Cn1cc(-c2cccc(CN3CCC(F)(F)CC3)c2)nn1 [Compound 4405, 2-(difluoromethyl)-5-(4-((4-(3-((4,4-difluoropiperidin-1-yl)methyl)phenyl)-1H-1,2,3-triazol-1-yl)methyl)-3-fluorophenyl)-1,3,4-oxadiazole]
18 | > 50000 | 244 | 205 | – | – | – | FC(F)c1nnc(-c2ccc(Cn3cc(CCc4cn5ccccc5n4)nn3)nc2)o1 [Compound 3822, 2-(difluoromethyl)-5-(6-((4-(2-(imidazo[1,2-a]pyridin-2-yl)ethyl)-1H-1,2,3-triazol-1-yl)methyl)pyridin-3-yl)-1,3,4-oxadiazole]
19 | > 50000 | 1096 | 45.6 | – | – | – | CC(C)(C)OC(=O)Nc1cccc(-c2cn(Cc3ccc(-c4nnc(C(F)F)o4)cc3)nn2)c1 [Compound 3698, Tert-butyl (3-(1-(4-(5-(difluoromethyl)-1,3,4-oxadiazol-2-yl)benzyl)-1H-1,2,3-triazol-4-yl)phenyl)carbamate]
20 | > 50000 | 347 | 144 | – | – | – | FC(F)c1nnc(-c2ccc(Cn3cc(-c4cccc5cc[nH]c45)nn3)nc2)o1 [Compound 4071, 2-(6-((4-(1H-indol-7-yl)-1H-1,2,3-triazol-1-yl)methyl)pyridin-3-yl)-5-(difluoromethyl)-1,3,4-oxadiazole]
21 | – | – | – | > 50000 | 2347 | 21.3 | CN(C)[C@H]1CCN(Cc2ccc(-c3cn(Cc4ccc(-c5nnc(C(F)F)o5)cc4F)nn3)cc2)C1 [Compound 4604, (S)-1-(4-(1-(4-(5-(difluoromethyl)-1,3,4-oxadiazol-2-yl)-2-fluorobenzyl)-1H-1,2,3-triazol-4-yl)benzyl)-N,N-dimethylpyrrolidin-3-amine]
